Reference: patent publication US7405307B2, “Biphenylcarboxamides useful as lipid lowering agents” (Janssen Pharmaceutica N.V., priority 2000, dated 2008)

system: not given; test: not given; settings: not given

| Compound | melting point [°C] |
| --- | --- |
| COC(=O)C(NC/C=C/c1ccc(NC(=O)c2ccccc2-c2ccc(C(F)(F)F)cc2)cc1)c1ccccc1 (stereo not shown) [Compound 137] | 142 |

system: ApoB secretion, HepG2 cells; test: Quantification of the secretion of ApoB; type: cell-based; settings: Homo sapiens, 24 hours of incubation with test compound, apoB immunoprecipitation, read-out: pIC50 values (= −log IC50 value) (converted)
Procedure: C. Pharmacological Examples C.1. Quantification of the Secretion of ApoB.
HepG2 cells were cultured in 24-well plates in MEM Rega 3 containing 10% fetal calf serum. At 70% confluency, the medium was changed and the test compound or carrier (DMSO, 0.4% final concentration) was added. After 24 hours of incubation, the medium was transferred to Eppendorf tubes and cleared by centrifugation. A sheep antibody directed against either apoB was added to the supernatant and the mixture was kept at 8° C. for 24 hours. Then, rabbit anti-sheep antibody was added and the immune complex was allowed to precipitate for 24 hours at 8° C. The immunoprecipitate was pelleted by centrifugation for 25 minutes at 1320 g and washed twice with a buffer containing 40 mM Mops, 40 mM NaH2PO4, 100 mM NaF, 0.2 mM DTT, 5 mM EDTA, 5 mM EGTA, 1% Triton-X-100, 0.5% sodium deoxycholate (DOC), 0.1% SDS, 0.2 μM leupeptin and 0.2 μM PMSF. Radioactivity in the pellet was quantified by liquid scintillation counting.
Resulting IC50 values are enumerated in Table C.1

| IC50 [nM] | Compound |
| --- | --- |
| 183 | CCOC(=O)C(NC1CCN(c2ccc(NC(=O)c3ccccc3-c3ccc(C(F)(F)F)cc3)cc2)C1)c1ccccc1 (stereo not shown) [Compound 105] |
| 10.7 | CCNC(=O)C(NC1CCN(c2ccc(NC(=O)c3ccccc3-c3ccc(C(F)(F)F)cc3)cc2)C1)c1ccccc1 (stereo not shown) [Compound 113] |
| 753 | CCCNC(=O)C(NC1CCC(Nc2ccc(NC(=O)c3ccccc3-c3ccc(C(F)(F)F)cc3)cc2)CC1)c1ccccc1 (stereo not shown) [Compound 29] |
| 94.8 | CCCNC(=O)C(c1ccccc1)N(C)C1CCN(c2ccc(NC(=O)c3ccccc3-c3ccc(C(F)(F)F)cc3)cc2)C1 (stereo not shown) [Compound 116] |
| 1600 | CCOC(=O)C(NC1CCN(c2ccc(NC(=O)c3ccccc3-c3ccc(C(F)(F)F)cc3)cc2)CC1)c1ccccc1 (stereo not shown) [Compound 103] |
| < 30 | CCCNC(=O)C(NC1CCN(c2ccc(NC(=O)c3ccccc3-c3ccc(C(F)(F)F)cc3)cc2)C1)c1ccccc1 (stereo not shown) [Compound 117] |
| 948 | CCCNC(=O)C(NCCCNc1ccc(NC(=O)c2ccccc2-c2ccc(C(F)(F)F)cc2)cc1)c1ccccc1 (stereo not shown) [Compound 25] |
| 41.7 | COC(=O)C(c1ccccc1)N(C)C1CCN(c2ccc(NC(=O)c3ccccc3-c3ccc(C(F)(F)F)cc3)cc2)C1 (stereo not shown) [Compound 100] |
| 1490 | CCCNC(=O)C(NCC(C)(C)CNc1ccc(NC(=O)c2ccccc2-c2ccc(C(F)(F)F)cc2)cc1)c1ccccc1 (stereo not shown) [Compound 28] |
| 129 | CCOC(=O)C(NCCCNc1ccc(NC(=O)c2ccccc2-c2ccc(C(F)(F)F)cc2)cc1)c1ccccc1 (stereo not shown) [Compound 8] |
| 3000 | CCCOC(=O)C(c1ccccc1)N1CCC(Nc2ccc(NC(=O)c3ccccc3-c3ccc(C(F)(F)F)cc3)cc2)CC1 (stereo not shown) [Compound 106] |
| 39.4 | CCNC(=O)C(c1ccccc1)N(C)C1CCN(c2ccc(NC(=O)c3ccccc3-c3ccc(C(F)(F)F)cc3)cc2)C1 (stereo not shown) [Compound 112] |
| 1570 | CCNC(=O)C(NC1CCC(Nc2ccc(NC(=O)c3ccccc3-c3ccc(C(F)(F)F)cc3)cc2)CC1)c1ccccc1 (stereo not shown) [Compound 23] |
| 938 | CCCOC(=O)C(c1ccccc1)N(C)CCCN(C)c1ccc(NC(=O)c2ccccc2-c2ccc(C(F)(F)F)cc2)cc1 (stereo not shown) [Compound 14] |
| 330 | CCOC(=O)C(NCCNc1ccc(NC(=O)c2ccccc2-c2ccc(C(F)(F)F)cc2)cc1)c1ccccc1 (stereo not shown) [Compound 7] |
| 1370 | CCOC(=O)C(NC1CCC(Nc2ccc(NC(=O)c3ccccc3-c3ccc(C(F)(F)F)cc3)cc2)CC1)c1ccccc1 (stereo not shown) [Compound 11] |
| 948 | CCCNC(=O)C(NC1CCN(c2ccc(NC(=O)c3ccccc3-c3ccc(C(F)(F)F)cc3)cc2)CC1)c1ccccc1 (stereo not shown) [Compound 115] |
| 317 | COC(=O)C(NCCCNc1ccc(NC(=O)c2ccccc2-c2ccc(C(F)(F)F)cc2)cc1)c1ccccc1 (stereo not shown) [Compound 2] |
| 98.4 | COC(=O)C(c1ccccc1)N(C)CCN(C)c1ccc(NC(=O)c2ccccc2-c2ccc(C(F)(F)F)cc2)cc1 (stereo not shown) [Compound 4] |

The next lines start with the compound.

| Compound | IC50 [nM] |
| --- | --- |
| CCCNC(=O)C(c1ccccc1)N(C)CCCN(C)c1ccc(NC(=O)c2ccccc2-c2ccc(C(F)(F)F)cc2)cc1 (stereo not shown) [Compound 26] | 1970 |
| COC(=O)C(NC1CCN(c2ccc(NC(=O)c3ccccc3-c3ccc(C(F)(F)F)cc3)cc2)CC1)c1ccccc1 (stereo not shown) [Compound 98] | 1580 |
| CCNC(=O)C(c1ccccc1)N1CCC(Nc2ccc(NC(=O)c3ccccc3-c3ccc(C(F)(F)F)cc3)cc2)CC1 (stereo not shown) [Compound 110] | 1170 |
| CCCOC(=O)C(c1ccccc1)N(C)C1CCN(c2ccc(NC(=O)c3ccccc3-c3ccc(C(F)(F)F)cc3)cc2)C1 (stereo not shown) [Compound 108] | 69 |
| CCCOC(=O)C(c1ccccc1)N(C)CCN(C)c1ccc(NC(=O)c2ccccc2-c2ccc(C(F)(F)F)cc2)cc1 (stereo not shown) [Compound 15] | 757 |
| CCCNC(=O)C(c1ccccc1)N1CCC(Nc2ccc(NC(=O)c3ccccc3-c3ccc(C(F)(F)F)cc3)cc2)CC1 (stereo not shown) [Compound 114] | 2610 |
| CCNC(=O)C(c1ccccc1)N(C)CCN(C)c1ccc(NC(=O)c2ccccc2-c2ccc(C(F)(F)F)cc2)cc1 (stereo not shown) [Compound 21] | 506 |
| CCCOC(=O)C(NC1CCN(c2ccc(NC(=O)c3ccccc3-c3ccc(C(F)(F)F)cc3)cc2)C1)c1ccccc1 (stereo not shown) [Compound 109] | 150 |
| CCNC(=O)C(NCC(C)(C)CNc1ccc(NC(=O)c2ccccc2-c2ccc(C(F)(F)F)cc2)cc1)c1ccccc1 (stereo not shown) [Compound 22] | 1030 |
| CCOC(=O)C(c1ccccc1)N(C)CCN(C)c1ccc(NC(=O)c2ccccc2-c2ccc(C(F)(F)F)cc2)cc1 (stereo not shown) [Compound 9] | 566 |
| CCCOC(=O)C(NCCNc1ccc(NC(=O)c2ccccc2-c2ccc(C(F)(F)F)cc2)cc1)c1ccccc1 (stereo not shown) [Compound 12] | 689 |
| CCNC(=O)C(c1ccccc1)N(C)CCCN(C)c1ccc(NC(=O)c2ccccc2-c2ccc(C(F)(F)F)cc2)cc1 (stereo not shown) [Compound 20] | 1930 |
| COC(=O)C(NC1CCC(Nc2ccc(NC(=O)c3ccccc3-c3ccc(C(F)(F)F)cc3)cc2)CC1)c1ccccc1 (stereo not shown) [Compound 6] | 2070 |
| CCCOC(=O)C(NCC(C)(C)CNc1ccc(NC(=O)c2ccccc2-c2ccc(C(F)(F)F)cc2)cc1)c1ccccc1 (stereo not shown) [Compound 16] | 1260 |
| CCOC(=O)C(c1ccccc1)N(C)C1CCN(c2ccc(NC(=O)c3ccccc3-c3ccc(C(F)(F)F)cc3)cc2)C1 (stereo not shown) [Compound 104] | < 30 |
| COC(=O)C(NCCNc1ccc(NC(=O)c2ccccc2-c2ccc(C(F)(F)F)cc2)cc1)c1ccccc1 (stereo not shown) [Compound 1] | 71 |
| CCCOC(=O)C(NC1CCC(Nc2ccc(NC(=O)c3ccccc3-c3ccc(C(F)(F)F)cc3)cc2)CC1)c1ccccc1 (stereo not shown) [Compound 17] | 809 |
| CCNC(=O)C(NCCCNc1ccc(NC(=O)c2ccccc2-c2ccc(C(F)(F)F)cc2)cc1)c1ccccc1 (stereo not shown) [Compound 19] | 229 |
| COC(=O)C(c1ccccc1)N(C)CCCN(C)c1ccc(NC(=O)c2ccccc2-c2ccc(C(F)(F)F)cc2)cc1 (stereo not shown) [Compound 3] | 766 |
| COC(=O)C(NC1CCN(c2ccc(NC(=O)c3ccccc3-c3ccc(C(F)(F)F)cc3)cc2)C1)c1ccccc1 (stereo not shown) [Compound 101] | 40.9 |
| CCOC(=O)C(c1ccccc1)N1CCC(Nc2ccc(NC(=O)c3ccccc3-c3ccc(C(F)(F)F)cc3)cc2)CC1 (stereo not shown) [Compound 102] | > 3000 |
| COC(=O)C(NCC(C)(C)CNc1ccc(NC(=O)c2ccccc2-c2ccc(C(F)(F)F)cc2)cc1)c1ccccc1 (stereo not shown) [Compound 5] | 1020 |
| CCNC(=O)C(NC1CCN(c2ccc(NC(=O)c3ccccc3-c3ccc(C(F)(F)F)cc3)cc2)CC1)c1ccccc1 (stereo not shown) [Compound 111] | 348 |
| CCNC(=O)C(NCCNc1ccc(NC(=O)c2ccccc2-c2ccc(C(F)(F)F)cc2)cc1)c1ccccc1 (stereo not shown) [Compound 18] | < 30 |
| CCOC(=O)C(NCC(C)(C)CNc1ccc(NC(=O)c2ccccc2-c2ccc(C(F)(F)F)cc2)cc1)c1ccccc1 (stereo not shown) [Compound 10] | 948 |
| CCCOC(=O)C(NC1CCN(c2ccc(NC(=O)c3ccccc3-c3ccc(C(F)(F)F)cc3)cc2)CC1)c1ccccc1 (stereo not shown) [Compound 107] | 1570 |
| CCCNC(=O)C(NCCNc1ccc(NC(=O)c2ccccc2-c2ccc(C(F)(F)F)cc2)cc1)c1ccccc1 (stereo not shown) [Compound 24] | 171 |
| CCCOC(=O)C(NCCCNc1ccc(NC(=O)c2ccccc2-c2ccc(C(F)(F)F)cc2)cc1)c1ccccc1 (stereo not shown) [Compound 13] | 488 |
| CCCNC(=O)C(c1ccccc1)N(C)CCN(C)c1ccc(NC(=O)c2ccccc2-c2ccc(C(F)(F)F)cc2)cc1 (stereo not shown) [Compound 27] | 625 |
